# Key:
# [1] = cited from earlier work; for effect on the intestine: administered in pharmacological doses
# [2] = system: volunteers; experiment: Phase Ia single rising dose study, safety, tolerance and bowel movement frequency; format: in vivo, human
# Experimental: (§1) The safety and tolerance of oral Compound A (13,14-dihydro-15-keto-16,16-difluoro-PGE1) was evaluated in 16 volunteers in a single-dose Phase I study (Phase Ia) at rising per-person doses of 6 μg, 12 μg, 24 μg, 48 μg, 72 μg, and 96 μg compared and in 24 volunteers in a multiple-dose Phase I study (Phase Ib) at rising per-person doses of 24 μg, 30 μg, and 36 μg of Compound A administered three times a day (TID) (i.e., total daily per person doses of 72 μg, 90 μg and 108 μg) for 6 days.
# 96 μg was the maximum tolerated single oral Compound A dose. […] These occurred in 13 of the 17 volunteers and all resolved. Volunteers receiving placebo experienced five AEs. Most AEs could be categorized as either responses or events commonly reported in Phase I clinical trials (such as headache and lightheadedness) or expected pharmacodynamic responses of Compound A (such as loose bowel movements, diarrhea and abdominal cramping).
# Bowel movement frequency was assessed during the 24 hour period after dosing for each dose-level group. Bowel movements were experienced in the placebo and in all active dose groups. […] Compared to only three of twelve subjects experiencing bowel movements in the placebo group, all six subjects in the 96 μg Compound A group experienced bowel movements. Furthermore, the average number of bowel movements per subject in this Compound A group (1.5) was three times greater than the average number of bowel movements per subject in the placebo group (0.5).
# [3] = system: volunteers; experiment: Phase Ib multiple rising dose study (TID for 6 days), safety, tolerance and bowel movement frequency; format: in vivo, human; settings: for total bowel movements in group: placebo 31
# Experimental: as §1
# Compound A was determined to be optimal when administered at the 24 μg dose TID and determined to be safe and tolerable up to 36 μg when administered TID for at least 6 days.
# Bowel movement frequency was assessed in this study as well. […] A total of 193 bowel movements were experienced in this study. Of these, 31 occurred in the placebo group, 70 in the 24 μg group, 51 in the 30 μg group and 41 in the 36 μg group.
# [4] = system: patients; experiment: Phase II dosage study in constipation, 21 days; format: in vivo, human; settings: for daily average number of spontaneous bowel movements vs placebo: Week 1 and Week 2; for stool consistency: all post-baseline time points
# Experimental: All randomized patients who took at least one dose of double-blind study medication constituted the safety evaluable (SE) population. These patients were included in the demographic data, baseline characteristic data and safety analysis. For efficacy, the same data set was used and is referred to as the intent-to-treat (ITT) population. […] Key efficacy analyses were also performed on the per-protocol (PP) population, which excluded all data for the affected weeks for protocol violators. Patients whose treatments were adjusted were analyzed in their original treatment group (i.e., as randomized).
# Eligible patients were treated with either placebo or total daily doses of 24 μg, 48 μg or 72 μg of Compound A for 21 days. One placebo or Compound A capsule was taken 3 times each day (AM, Noon, and PM). Compound A was administered as 24 μg oral capsules. Patients assigned to receive the total daily 24 μg Compound A dose took one Compound A capsule in the AM and one matching placebo capsule both at Noon and in the PM; patients assigned to receive the total daily 48 μg Compound A dose took one Compound A capsule in both the AM and PM and one matching placebo capsule at Noon; patients assigned to receive the total daily 72 μg Compound A dose took one Compound A capsule in the AM, at Noon, and in the PM.
compound,measurement,setting,value
CCCCC(C)(O)C/C=C/[C@H]1[C@H](O)CC(=O)[C@@H]1CCCCCCC(=O)OC (mixture of isomers) [misoprostol],most commonly reported side effect,[1]; in vivo,diarrhea
"CCCCC(F)(F)C(=O)CCC1C(O)CC(=O)C1CCCCCCC(=O)O (centres unmarked) [Compound A, 13,14-dihydro-15-keto-16,16-difluoro-PGE1]",average number of bowel movements per subject relative to placebo group,"[2]; 96 μg single dose, 24 hour period after dosing",three
same,average number of bowel movements per subject,"[2]; 96 μg single dose, 24 hour period after dosing, placebo 0.5",1.5
same,subjects experiencing bowel movements,"[2]; 96 μg single dose, 24 hour period after dosing, placebo three of twelve",all six
same,bowel movements compared to placebo,[2]; 24 hour period after dosing,trend for increased bowel movements
same,total number of AEs,[2]; in vivo,49
same,volunteers with AEs,[2]; in vivo,13 of the 17
same,dose-limiting toxicity,"[2]; in vivo, po",nausea
same,maximum tolerated single per-person dose,[2]; single oral dose,96 µg
same,total bowel movements in group,[3]; 24 μg group TID,70
same,total bowel movements in group,[3]; 30 μg group TID,51
same,maximum tolerated multiple dose as total daily dose,[3]; 36 μg TID,108 µg
same,total bowel movements in group,[3]; 36 μg group TID,41
same,best tolerated effective dose,"[3]; TID, healthy volunteers",24 µg
same,optimal dose,[3]; administered TID,24 µg
same,central nervous system or physical abnormalities,[3]; in vivo,no central nervous system or physical abnormalities observed
same,main dose limiting side effect,[3]; in vivo,nausea
same,safe and tolerable dose,[3]; in vivo,up to 36 μg
same,vital signs and ECG measurements,[3]; in vivo,normal
same,maximum tolerated multiple per-person dose,"[3]; oral, taken TID, 6 days",36 µg
same,proportion of patients who had a spontaneous bowel movement on Day 1,[4]; 48 μg total daily dose,statistically significant increase
same,daily average number of spontaneous bowel movements vs placebo,[4]; 48 μg total daily dose,statistically significant increases
same,constipation severity,"[4]; 48 μg total daily dose, Week 3",Statistically significant improvements
same,stool consistency,[4]; 48 μg total daily dose,Statistically significant improvements
same,proportion of patients who had a spontaneous bowel movement on Day 1,[4]; 72 μg total daily dose,statistically significant increase
same,daily average number of spontaneous bowel movements vs placebo,[4]; 72 μg total daily dose,statistically significant increases
same,constipation severity,"[4]; 72 μg total daily dose, Weeks 2 and 3",Statistically significant improvements
same,stool consistency,[4]; 72 μg total daily dose,Statistically significant improvements
same,minimum effective dose,[4]; based on statistical analyses,48 μg per day
same,"overall efficacy, relief of constipation",[4]; doses as low as 24 μg per day,tended to relieve constipation
CCCCC[C@H](O)/C=C/[C@@H]1[C@@H](C/C=C\CCCC(=O)O)[C@@H](O)C[C@H]1O [PGF2α],effect on the intestine,[1],stimulate intestinal transit and to cause diarrhea
CCCCC[C@H](O)/C=C/[C@H]1[C@H](O)CC(=O)[C@@H]1C/C=C\CCCC(=O)O [PGE2],effect on the intestine,[1],stimulate intestinal transit and to cause diarrhea
